# Columns and labels:
# Assay type in all cases: cell-based, rat
# MAP kinase [1] = test: Inhibition of EGF-stimulated MAP kinase activity in Rat1 cells (Example 2, western blot with anti-active-MAPK antibodies, densitometry); conditions: compound 10^-4 M preincubated about 30 min; for Inhibition of MAP Kinase activity (% of Control), 15 minute activation by EGF: EGF 25 ng/ml for 15 minutes
# Experimental: Rat1 cells grown in a series of cell culture dishes were prepared in the same manner described above in Example 1. The cells were serum-starved for 16 hours. Three groups of cell culture dishes containing Rat1 cells were each preincubated for about 30 minutes with solution containing the pheromone compound, trans-3, cis-7-tetradecadienyl-acetate at a concentration of 10^−4 M, with a solution containing the pheromone compound, trans-3, cis-8-tetradecadienyl-acetate at a concentration of 10^−4 M, or a control solution absent any pheromone compound. After preincubation, all of the Rat1 cells were stimulated with epidermal growth factor (EGF) (25 ng/ml) for about 15 minutes for one group and 30 minutes for a second group. The Rat1 cells were then washed with phosphate buffered saline (PBS) and lysed with RIPA buffer. The proteins were then separated by sodium dodecyl sulfate-polyacrylamide gel electrophoresis (SDS-PAGE) and probed with anti-active-MAPK antibodies. The inhibitory effect of the pheromone compound on MAPK activity was calculated as the percent EGF-induced activity as indicated by densitometry analysis as compared to the control receiving no pheromone compound.
# MAP kinase [2] = test: Screening method for pheromone compounds having MAP kinase modulating activity in Rat1 cells (Example 1); conditions: observed on screening in accordance with the described methods
# Experimental: In a preferred screening method, as set forth in Example 1 herein, pheromone compounds with MAP kinase modulating activity are identified using Rat1 cells grown in cell culture dishes. Samples of the pheromone compound are added to respective cell culture dishes containing the Rat1 cells and incubated. A control group is established by treating a separate group of cell culture dishes containing Rat1 cells with the same solutions absent the pheromone compound. After incubation, the Rat1 cells are stimulated with epidermal growth factor to stimulate MAP kinase activation in the Rat1 cells. Upon completion of the incubation period, the Rat1 cells in each of the culture dishes are separately processed to obtain the corresponding cell extract containing proteins indicative of active kinase. The proteins are then separated using known electrophoresis techniques and prepared as a blot for the detection and measurement of active MAP kinase. The resulting blot is analyzed using densitometric techniques to measure the corresponding activity of the tested pheromone compound.
# Rat1 cells were grown in 6 cm cell culture dishes in a tissue culture incubator at 37° C. in an atmosphere containing 5% carbon dioxide. The cells were serum-starved for 16 hours. […] A control group was established by adding to the remaining cell culture dishes the same solution absent the pheromone compound. After the 15 minute period, the Rat1 cells were stimulated with epidermal growth factor (EGF) (50 ng/ml) for about 15 minutes for one group and 30 minutes for a second group.
# The Rat1 cells were then treated to remove the corresponding incubation medium and then the cells were rinsed twice each with 5 ml of cold phosphate buffered saline (PBS) and once with 5 ml of cold homogenizing buffer (Buffer H) containing 50 mM of β-glycerophosphate, (pH 7.3), 1.5 mM of ethylenebis(oxyethylenenitrilo)tetraacetic acid (EGTA), 1 mM of ethylenediaminetetraacetic acid (EDTA), 1 mM of dithiothreitol (DTT), 0.1 mM sodium orthovanadate, 1 mM benzamidine, 10 μg/ml of aprotinin, 10 μg/ml of leupeptin, and 2 μg/ml of pepstatin (2 μg/ml)+1% Triton-X-100.
# The cells were harvested and lysed with 350 μl of cold Buffer H. Alternatively, the cells may be harvested and lysed with radioimmunoprotein assay buffer (RIPA buffer). Each extract was then centrifuged at 15,000×g for 15 minutes at 4° C. The resulting supernatants contained the protein extracts to be examined and were transferred to fresh, pre-cooled test tubes and kept on ice.
# The proteins were then separated by sodium dodecyl sulfate-polyacrylamide gel electrophoresis (SDS-PAGE) and transferred, by western blotting, onto a nitrocellulose membrane.
# The blot produced above was blocked with 2% bovine serum albumin (BSA) in Tris-buffered saline/Tween-20 (TBST) for 1 hour. The blot was then incubated with a monoclonal anti-active MAP kinase antibody obtained from Sigma, and diluted according to the manufacturer recommendations. The blot was incubated overnight at 4° C. Alternatively, the blot may also be incubated for about 30 minutes at 37° C., or from one to two hours at room temperature.
# The treated blot was placed in a flat container and washed at least 3 times for 15 minutes each with TBST buffer at room temperature. The blot was then incubated with alkaline phosphatase-conjugated goat anti-mouse IgG obtained from Jackson Laboratories, diluted according to the manufacturer recommendations in TBST buffer for 45 minutes at room temperature. The blot was then subjected to a second washing, repeated 3 times, for 10 minutes each with TBST. An alkaline phosphatase (AP) detection technique was utilized to detect and measure the presence of active MAP kinase. Enhanced MAP kinase activity as compared to control is evidence that the compound is a MAP kinase activator. Lowered MAP kinase activity as compared to control is evidence that the compound is a MAP kinase inhibitor. […]
# MAP kinase [3] = test: MAP kinase activation in Rat1 cells compared to EGF and TPA (Example 3, western blot, densitometry); conditions: 15 minutes
# Experimental: Rat1 cells were grown in 6 cm cell culture dishes in a tissue culture incubator at 37° C. in an atmosphere containing 5% carbon dioxide. The Rat1 cells were serum-starved for 16 hours. Three groups of the Rat1 cells were then treated for 15 minutes with either epidermal growth factor (EGF) (50 ng/ml), 12-O-tetradecanoylphorbol-13-acetate (TPA) (100nM), or with one of the pheromone compounds at one of two concentrations identified in Table 2 below. EGF and TPA are compounds which are known to activate MAP kinase and therefore serve as a basis of comparing the relative activity of the pheromone compounds. The cells were then washed with phosphate buffered saline (PBS) and lysed with radioimmunoprotein assay (RIPA) buffer. The proteins were then separated by sodium dodecyl sulfate-polyacrylamide gel electrophoresis (SDS-PAGE), transferred onto a nitrocellulose membrane and probed with anti-MAPK antibodies to produce a blot. The MAP kinase activity for the EGF-treated cells, the TPA-treated cells and the pheromone compound-treated cells, was analyzed and calculated using densitometric analysis. The results shown in Table 2 are presented as percent of EGF-stimulated active MAP kinase levels or TPA-stimulated active MAP kinase levels, respectively.
Structure (SMILES),"Inhibition of MAP Kinase activity (% of Control), 15 minute activation by EGF (MAP kinase [1])","Inhibition of MAP Kinase activity (% of Control), 30 minute activation by EGF (MAP kinase [1]; EGF 25 ng/ml for 30 minutes)",mitogen-activating protein kinase modulation activity (activator or inhibitor) (MAP kinase [2]),"Activity (% of EGF-activation), Conc. 1 (MAP kinase [3]; compound 1 × 10^-4 M, relative to EGF 50 ng/ml)","Activity (% of TPA-activation), Conc. 1 (MAP kinase [3]; compound 1 × 10^-4 M, relative to TPA 100 nM)","Activity (% of EGF-activation), Conc. 2 (MAP kinase [3]; compound 1 × 10^-5 M, relative to EGF 50 ng/ml)","Activity (% of TPA-activation), Conc. 2 (MAP kinase [3]; compound 1 × 10^-5 M, relative to TPA 100 nM)"
"CCCCCC/C=C\CC/C=C/CCOC(C)=O [Trans-3,Cis-7-Tetradecadienyl-acetate]",75%,85%,inhibitors,–,–,–,–
"CCCCC/C=C\CCC/C=C/CCOC(C)=O [Trans-3,Cis-8-Tetradecadienyl-acetate]",50%,–,inhibitors,–,–,–,–
CCCCCCCC/C=C\CCCOC(C)=O [Cis-4-Tridecen-1-yl-acetate],–,–,activators,3%,7%,5%,30%

# Source: US6806293B1, “Use of pheromone compounds having MAP kinase modulating activity” (Darley Pharmaceuticals LTD, priority 2001, dated 2004)
